In the test the target is Recombinant human MALT-1 (amino acids 340-824) (Homo sapiens (Human), UniProt Q9UDY8). Briefly: MALT-1 inhibition assay (fluorogenic substrate Ac-LRSR-Rh110-DP). Format: biochemical. As to conditions: recombinant human MALT-1, substrate Ac-LRSR-Rh110-DP. How it is done:
MALT-1 paracaspase activity was measured using the fluorogenic substrate Ac-LRSR-Rh110-DP (purchased from Biosantan GmbH). […] The reaction was initiated by addition of substrate. Final concentrations of MALT-1 and substrate were 3 nM and 10 μM respectively. Reactions were incubated in the dark for 60 minutes at 25° C. […] Percent inhibition values were calculated from relative fluorescence units at different doses and fitted to a 4-parameter logistic curve to determine IC50 values (see Table 1).

Sequence of Recombinant human MALT-1 (amino acids 340-824) (Q9UDY8 340-824): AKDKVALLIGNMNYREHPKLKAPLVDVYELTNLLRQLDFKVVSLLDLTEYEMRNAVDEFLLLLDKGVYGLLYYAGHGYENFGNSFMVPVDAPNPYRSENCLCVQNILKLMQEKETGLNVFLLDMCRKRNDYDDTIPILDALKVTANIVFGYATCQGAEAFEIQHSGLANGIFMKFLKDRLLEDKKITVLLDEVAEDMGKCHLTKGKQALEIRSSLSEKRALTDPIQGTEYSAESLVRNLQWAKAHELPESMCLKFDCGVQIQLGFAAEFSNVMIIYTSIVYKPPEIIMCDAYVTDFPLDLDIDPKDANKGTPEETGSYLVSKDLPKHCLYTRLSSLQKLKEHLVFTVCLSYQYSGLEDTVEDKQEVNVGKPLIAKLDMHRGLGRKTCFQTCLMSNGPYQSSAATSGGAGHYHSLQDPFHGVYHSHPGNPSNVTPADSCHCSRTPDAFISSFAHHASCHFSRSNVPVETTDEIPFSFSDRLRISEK

Broadly, the IC50 is the concentration that gives 50% inhibition. `CN(C(=O)[C@H]1CC(=O)N1)[C@@H](c1ccc(N2CCCc3c2cnc2cc(Cl)nn32)cc1)C(F)(F)F` [CPD0075869, (2R)-N-[(1S)-1-[4-(4-chloro-2,3,7,10-tetrazatricyclo[7.4.0.0^2,6]trideca-1(9),3,5,7-tetraen-10-yl)phenyl]-2,2,2-trifluoro-ethyl]-N-methyl-4-oxo-azetidine-2-carboxamide]: the IC50 turned out to be 75 nM. Next, `COc1ccc2ncc(Nc3ccc([C@H](N(C)C(=O)C4CCN(C(C)=O)CC4)C(F)(F)F)cc3)c([C@@H]3CCOC3)c2n1` [CPD0082480]: 77 nM. With `COc1ccc2ncc(Nc3ccc([C@H](N(C)C(=O)C4CCS(=O)(=O)CC4)C(F)(F)F)cc3)c([C@H](C)N)c2n1` (relative stereo) [CPD0084307, N-[(1 S)-1-[4-[[4-[(1rel S)-1-aminoethyl]-6-methoxy-1,5-naphthyridin-3-yl]amino]phenyl]-2,2,2-trifluoroo-ethyl]-N-methyl-1,1-dioxo-thiane-4-carboxamide] the figure was 124 nM. For `COc1ccc2ncc(Nc3ccc([C@@H](N(C)C(=O)[C@H]4CC[S@@](=N)(=O)CC4)C(F)(F)F)cc3)c([C@@H](C)OC)c2n1` (stereo in doubt) [CPD0077188, (1 rel-r,4rel-r)-1-imino-N-methyl-1-oxo-N-[(1R)-2,2,2-trifluoro-1-[4-({6-methoxy-4-[(1 rel-R)-1-methoxyethyl]-1,5-naphthyridin-3-yl}amino)phenyl]ethyl]-1λ^6-thiane-4-carboxamide], the concentration for half-maximal inhibition (IC50) came out at 255 nM. In the case of `C[C@H]1CCN(c2ccc([C@H](N(C)C(=O)[C@@H]3CNC(=O)C3)C(F)(F)F)cc2)c2cnc3cc(Cl)nn3c21` [CPD0074569], the IC50 came out at 30 nM. Turning to `CO[C@@H](C)c1c(Nc2ccc([C@H](N(C)C(=O)[C@H]3CC[S@](=N)(=O)CC3)C(F)(F)F)cc2)cnn2cc(Cl)nc12` (relative stereo) [CPD0082473, (1rel-r, 4rel-r) N-[(1S)-1-[4-[[2-chloro-8-[(1 S)-1-methoxyethyl]imidazo[1,2-b]pyridazin-7-yl]amino]phenyl]-2,2,2-trifluoro-ethyl]-1-imino-N-methyl-1-oxo-thiane-4-carboxamide], the IC50 amounted to 52 nM. With `CN(C(=O)[C@H]1CCN(C(=O)CO)C1)[C@@H](c1ccc(N2CCCc3c2cnc2cc(F)nn32)cc1)C(F)(F)F` [CPD0075878] the figure was 111 nM.

`CN(C(=O)[C@H]1C[C@@H](O)C1)[C@@H](c1ccc(N2CCCc3c2cnc2cc(Cl)nn32)cc1)C(F)(F)F` [CPD0074538]: the concentration for half-maximal inhibition (IC50) is 57 nM.

On to `C[C@@H]1CCN(c2ccc([C@H](N(C)C(=O)[C@@H]3CNC(=O)C3)C(F)(F)F)cc2)c2cnc3cc(Cl)nn3c21` [CPD0074548], for which the IC50 amounted to 46 nM. With “N-[(1S)-1-[4-[[2-chloro-8-[(1S)-1-methoxyethyl]imidazo[1,2-b]pyridazin-7-yl]amino]phenyl]-2,2,2-trifluoro-ethyl]-N-methyl-1,1-dioxo-thiane-4-carboxamide [CPD0084508]” the figure was 182 nM. With `CO[C@@H](C)c1c(Nc2ccc([C@H](N(C)C(=O)[C@H]3CCC(=O)N3)C(F)(F)F)cc2)cnn2cc(Cl)nc12` [CPD0082469, (2R)-N-[(1S)-1-[4-[[2-chloro-8-[(1 S)-1-methoxyethyl]imidazo[1,2-b]pyridazin-7-yl]amino]phenyl]-2,2,2-trifluoro-ethyl]-N-methyl-5-oxo-pyrrolidine-2-carboxamide] the figure was 45 nM; with `C[C@H]1CCc2c(cnc3cc(Cl)nn23)N1c1ccc([C@H](N(C)C(=O)[C@H]2CC[S@](=N)(=O)CC2)C(F)(F)F)cc1` (relative stereo) [CPD0074564, (1rel r 4rel r) N-[(1S)-1-[4-[(11-rel S)-4-chloro-11-methyl-2,3,7,10-tetrazatricyclo[7.4.0.0^2,6]trideca-1(9),3,5,7-tetraen-10-yl]phenyl]-2,2,2-trifluoro-ethyl]-1-imino-N-methyl-1-oxo-thiane-4-carboxamide], 248 nM; with `CN(C(=O)[C@@H]1CNC(=O)N1)[C@@H](c1ccc(N2CCCc3c2cnc2cc(Cl)nn32)cc1)C(F)(F)F` (relative stereo) [CPD0075578, (4rel S)-N-[(1S)-1-[4-(4-chloro-2,3,7,10-tetrazatricyclo[7.4.0.0^2,6]trideca-1(9),3,5,7-tetraen-10-yl)phenyl]-2,2,2-trifluoro-ethyl]-N-methyl-2-oxo-imidazolidine-4-carboxamide], 51 nM.

For `COc1ccc2ncc(Nc3ccc([C@H](N(C)C(=O)C4CCS(=O)(=O)CC4)C(F)(F)F)cc3)c([C@@H](C)O)c2n1` (relative stereo) [CPD0084256, N-methyl-1,1-dioxo-N-[(1S)-2,2,2-trifluoro-1-[4-[[4-[(1rel R)-1-hydroxyethyl]-6-methoxy-1,5-naphthyridin-3-yl]amino]phenyl]ethyl]thiane-4-carboxamide], the IC50 came out at 38 nM. As for `CN(C(=O)[C@@H]1CNC(=O)O1)[C@@H](c1ccc(N2CCCc3c2cnc2cc(Cl)nn32)cc1)C(F)(F)F` (single isomer, unassigned) [CPD0075573], the IC50 was 197 nM. With `COc1ccc2ncc(Nc3ccc([C@H](N(C)C(=O)C4CCN(C(=O)CO)CC4)C(F)(F)F)cc3)c([C@@H]3CCOC3)c2n1` [CPD0082482] the figure was 72 nM; with `C[C@@H]1CCc2c(cnc3cc(Cl)nn23)N1c1ccc([C@H](N(C)C(=O)[C@H]2CC[S@](=N)(=O)CC2)C(F)(F)F)cc1` (relative stereo) [CPD0074551, (1rel r 4rel r) N-[(1S)-1-[4-[(11-rel R)-4-chloro-11-methyl-2,3,7,10-tetrazatricyclo[7.4.0.0^2,6]trideca-1(9),3,5,7-tetraen-10-yl]phenyl]-2,2,2-trifluoro-ethyl]-1-imino-N-methyl-1-oxo-thiane-4-carboxamide], 57 nM; with `COc1ccc2ncc(Nc3ccc([C@H](N(C)C(=O)C4CCN(C(=O)CO)CC4)C(F)(F)F)cc3)c([C@H]3CCOC3)c2n1` [CPD0082481], 73 nM. With `COc1ccc2ncc(Nc3ccc([C@H](N(C)C(=O)C4CCS(=O)(=O)CC4)C(F)(F)F)cc3)c(COC3CC3)c2n1` [CPD0074048] the figure was 163 nM; with `CN(C(=O)C1CC(O)C1)[C@@H](c1ccc(N2CCCc3c2cnc2cc(Cl)nn32)cc1)C(F)(F)F` (stereo partly shown) [CPD0073055], 46 nM; with `CN1C[C@H](C(=O)N(C)[C@@H](c2ccc(N3CCCc4c3cnc3cc(Cl)nn43)cc2)C(F)(F)F)NC1=O` (relative stereo) [CPD0075577], 42 nM. Regarding `CN(C(=O)[C@H]1CCN(C(=O)C2(O)CC2)C1)[C@@H](c1ccc(N2CCCc3c2cnc2cc(Cl)nn32)cc1)C(F)(F)F` (relative stereo) [CPD0073979, (3rel-S)-N-[(1S)-1-[4-(4-chloro-2,3,7,10-tetrazatricyclo[7.4.0.0^2,6]trideca-1(9),3,5,7-tetraen-10-yl)phenyl]-2,2,2-trifluoro-ethyl]-1-(1-hydroxycyclopropanecarbonyl)-N-methyl-pyrrolidine-3-carboxamide], the IC50 turned out to be 75 nM. Next, `CC(=O)N1CCC(C(=O)N(C)[C@@H](c2ccc(N3CCCc4c3cnc3cc(F)nn43)cc2)C(F)(F)F)CC1` [CPD0074050, 1-acetyl-N-methyl-N-[(1S)-2,2,2-trifluoro-1-(4-{4-fluoro-2,3,7,10-tetraazatricyclo[7.4.0.0^2,6]trideca-1(9),3,5,7-tetraen-10-yl}phenyl)ethyl]piperidine-4-carboxamide]: 85 nM; `C[C@@H]1CCc2c(cnc3cc(Cl)nn23)N1c1ccc([C@H](N(C)C(=O)[C@H]2CC[S@@](=N)(=O)CC2)C(F)(F)F)cc1` (relative stereo) [CPD0074552, (1rel s 4rel s) N-[(1S)-1-[4-[(11-rel R)-4-chloro-11-methyl-2,3,7,10-tetrazatricyclo[7.4.0.0^2,6]trideca-1(9),3,5,7-tetraen-10-yl]phenyl]-2,2,2-trifluoro-ethyl]-1-imino-N-methyl-1-oxo-thiane-4-carboxamide]: 78 nM. With `CN1C[C@@H](C(=O)N(C)[C@@H](c2ccc(N3CCCc4c3cnc3cc(Cl)nn43)cc2)C(F)(F)F)NC1=O` (relative stereo) [CPD0075574, (4rel S)-N-[(1S)-1-[4-(4-chloro-2,3,7,10-tetrazatricyclo[7.4.0.0^2,6]trideca-1(9),3,5,7-tetraen-10-yl)phenyl]-2,2,2-trifluoro-ethyl]-N,1-dimethyl-2-oxo-imidazolidine-4-carboxamide] the figure was 80 nM; with `CN(C(=O)C1CNC(=O)N1)[C@@H](c1ccc(N2CCCc3c2cnc2cc(Cl)nn32)cc1)C(F)(F)F` (stereo in doubt) [CPD0075579, (4rel R)-N-[(1S)-1-[4-(4-chloro-2,3,7,10-tetrazatricyclo[7.4.0.0^2,6]trideca-1(9),3,5,7-tetraen-10-yl)phenyl]-2,2,2-trifluoro-ethyl]-N-methyl-2-oxo-imidazolidine-4-carboxamide], 44 nM; with `COc1ccc2ncc(Nc3ccc([C@H](N(C)C(=O)C4CCS(=O)(=O)CC4)C(F)(F)F)cc3)c(C(=O)N3CCC3)c2n1` [CPD0074046, N-[(1S)-1-[4-[[4-(azetidine-1-carbonyl)-6-methoxy-1,5-naphthyridin-3-yl]amino]phenyl]-2,2,2-trifluoro-ethyl]-N-methyl-1,1-dioxo-thiane-4-carboxamide], 494 nM. With `COc1ccc2ncc(Nc3ccc([C@H](N(C)C(=O)C4CCS(=O)(=O)CC4)C(F)(F)F)cc3)c(C3(F)COC3)c2n1` [CPD0076413, N-methyl-1,1-dioxo-N-[(1S)-2,2,2-trifluoro-1-[4-[[4-(3-fluorooxetan-3-yl)-6-methoxy-1,5-naphthyridin-3-yl]amino]phenyl]ethyl]thiane-4-carboxamide], the IC50 was found to be 109 nM.

(Values after patent publication US20250051327A1, “MALT-1 MODULATORS” (EXSCIENTIA AI LIMITED, priority 2020, published 2025).)
